For series [1], the system named is Gm+ve bacteria, Gm-ve bacteria, fungi. The series can be described thus: Well diffusion assay, statements over groups of microorganisms. In kind it is cell-based. The procedure:
The microorganism inoculums were uniformly spread using sterile cotton swabs on a sterile Petri dish malt extract agar (for fungi) and nutrient agar (for bacteria). One hundred cubic millimeters of each sample was added to each well (10 mm-diameter holes were cut in the agar gel, 20 mm apart from one another). The systems were incubated for 24-48 h at 37 °C (for bacteria) and at 28 °C (for fungi). After incubation, the microorganism growth was observed. Inhibition zones of the bacterial and fungal growth were measured in millimeters. Tests were performed in triplicate (Cappuccino and Sherman, 1999[12]; Vanden Berghe and Vlientinck, 1991[62]).
All the newly synthesized compounds described in this report were screened for both antibacterial and antifungal activity via the reported agar diffusion well method (Vanden Berghe and Vlietinck, 1991[62]). The inhibition zones and minimum inhibitory concentrations (MIC) were determined by the serial dilution method (Cappuccino and Sherman, 1999[12]). […]
(In general: Agar diffusion results depend on both activity and mobility in agar.)

In series [2] the test system is Human colon carcinoma (HCT-116). Kind of series: Cytotoxic screening. In kind it is cell-based. To be noted: Homo sapiens, HCT-116; read-out: IC50 HCT-116. A digest of the protocol: (§1)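 Read-out is crystal violet staining (the text also names MTT), lysis in 33 % acetic acid, A590, with untreated cells as 100 %. IC50 was estimated graphically from survival curves.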

The test system of series [3] is human hepatocellular carcinoma (HEPG-2). The series can be described thus: Cytotoxic screening. In kind it is cell-based. To be noted: HepG2, read-out: IC50 HepG-2. Summed up: as §1
Series [4] relates to human breast adenocarcinoma (MCF-7). The series can be described thus: Cytotoxic screening. In kind it is cell-based. To be noted: Homo sapiens, MCF7; read-out: IC50 MCF-7. A digest of the protocol:
as §1

Series [5] concerns Syncephalastrum racemosum (RCMB 05922). Kind of series: Well diffusion assay (inhibition zone). In kind it is cell-based. To be noted: RCMB05922, 5 mg/mL in DMSO, fungi, read-out: Inhibition Zone (IZ) diameter, S.R. Summed up: (§2)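 Agar well diffusion with 10 mm wells, nutrient agar for bacteria and malt extract agar for fungi. Plates were incubated 24-48 h at 37 °C for bacteria or 28 °C for fungi. Inhibition zone diameters were measured in mm, in triplicate.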

For series [6], the system named is Escherichia coli (RCMB 010052). Kind of series: Well diffusion assay (inhibition zone). In kind it is cell-based. To be noted: RCMB010052, 5 mg/mL in DMSO, Gm-ve, read-out: Inhibition Zone (IZ) diameter, E.C. Summed up:
as §2

Series [7] deals with Aspergillus fumigatus (RCMB 02568). Kind of series: Well diffusion assay (inhibition zone). In kind it is cell-based. The conditions noted are these: RCMB02568, 5 mg/mL in DMSO, fungi, read-out: Inhibition Zone (IZ) diameter, A.F. Summed up: as §2
The test system of series [8] is Geotricum candidum (RCMB 05097). The series can be described thus: Well diffusion assay (inhibition zone). In kind it is cell-based. To be noted: 5 mg/mL in DMSO; fungi; read-out: Inhibition Zone (IZ) diameter, G.C. Summed up:
as §2

Series [9] relates to Streptococcus pneumoniae (RCMB 010010). The series can be described thus: Well diffusion assay (inhibition zone). In kind it is cell-based. To be noted: RCMB010010, 5 mg/mL in DMSO, Gm+ve, read-out: Inhibition Zone (IZ) diameter, S.P. A digest of the protocol: as §2
Series [10] deals with Bacillus subtilis (RCMB 010067). Kind of series: Well diffusion assay (inhibition zone). In kind it is cell-based. The conditions noted are these: RCMB010067, 5 mg/mL in DMSO, Gm+ve, read-out: Inhibition Zone (IZ) diameter, B.S. Summed up: as §2
The test system of series [11] is Candida albicans (RCMB 05036). Kind of series: Well diffusion assay (inhibition zone). The conditions noted are these: RCMB05036, 5 mg/mL in DMSO, fungi, read-out: Inhibition Zone (IZ) diameter, C.A. In kind it is cell-based. Summed up:
as §2

The test system of series [12] is Syncephalastrum racemosum (RCMB 05922). Kind of series: MIC by serial dilution method. In kind it is cell-based. To be noted: RCMB05922, fungi, read-out: Minimum inhibitory concentration, MIC, S.R. How it is done: (§3) All the newly synthesized compounds described in this report were screened for both antibacterial and antifungal activity via the reported agar diffusion well method (Vanden Berghe and Vlietinck, 1991[62]). The inhibition zones and minimum inhibitory concentrations (MIC) were determined by the serial dilution method (Cappuccino and Sherman, 1999[12]). The antimicrobial activity of the synthesized compounds was tested against a broad panel of microorganisms including two Gram-positive bacteria: Streptococcus pneumoniae (RCMB 010010) and Bacillus subtilis (RCMB 010067), two Gram-negative bacteria: Pseudomonas aeruginosa (RCMB 010043) and Escherichia coli (RCMB 010052), and four fungi: Aspergillus fumigatus (RCMB 02568), Syncephalastrum racemosum (RCMB 05922), Geotricum candidum (RCMB 05097), and Candida albicans (RCMB 05036). Ampicillin, ciprofloxacin, gentamicin and amphotericin B were used as positive control drugs (Atta-ur-Rahman and Thomsen, 2001[7]; Smania et al., 1999[57]). […] While in the case of Gm-ve bacteria, they had weak activity. In addition, certain strains of fungi were sensitive to tested compounds with an IZ range from 12-25 except Candida albicans.

In series [13] the test system is Aspergillus fumigatus (RCMB 02568). Kind of series: MIC by serial dilution method. To be noted: RCMB02568, fungi, read-out: Minimum inhibitory concentration, MIC, A.F. In kind it is cell-based. The procedure:
as §3

The subject of series [14] is Geotricum candidum (RCMB 05097). Kind of series: MIC by serial dilution method. In kind it is cell-based. The conditions noted are these: fungi; read-out: Minimum inhibitory concentration, MIC, G.C. How it is done:
as §3

A word on the IC50: it is the concentration that gives 50% inhibition. The melting point is the temperature of the solid-liquid transition.

Values after ≈ are worked out from the molar mass of the structure shown.

Regarding `COc1ccc(C2C(C#N)=C(N)Oc3c2ccc2c(N)cccc32)cc1` (stereo not drawn) [7b, 2,7-Diamino-4-(4-methoxy-phenyl)-4H-benzo[h]chromene-3-carbonitrile], the melting point stood at 185 °C. For the same compound, the “IZ range against Gm+ve, Gm-ve bacteria, and fungi” value in [1] is recorded as 18-23 mm. The 50% inhibitory concentration (IC50) in [2] was 44.1 µg/mL (≈ 128 µM). For the same compound, in series [3], the IC50 is 28.2 µg/mL (≈ 82.1 µM). For the same compound, the IC50 in [4] came out at 25.9 µg/mL (≈ 75.4 µM). Besides, in series [5], the zone of inhibition at 5000 µg/mL is 20.3 mm. In addition, in series [6], the zone of inhibition at 5000 µg/mL is 22.1 mm. The zone of inhibition at 5000 µg/mL in series [7] came to 21.6 mm. Also, the zone of inhibition at 5000 µg/mL in [8] worked out at 22.6 mm. The zone of inhibition at 5000 µg/mL in [9] was determined as 22.4 mm. In addition, the zone of inhibition at 5000 µg/mL in series [10] stood at 23.2 mm.

In turn, `N#CC1=C(N)Oc2c(ccc3c(N)cccc23)C1c1c(F)cc(F)cc1F` (stereo not drawn) [7d, 2,7-Diamino-4-(2,4,6-trifluoro-phenyl)-4H-benzo[h]chromene-3-carbonitrile] gave a melting point of 235 °C. For the same compound, the “IZ range against Gm+ve, Gm-ve bacteria, and fungi” value in series [1] was 18-23 mm. Moreover, the IC50 in series [2] was 61.3 µg/mL (≈ 167 µM). The concentration for half-maximal inhibition (IC50) in series [3] turned out to be 52.3 µg/mL (≈ 142 µM). Besides, in [4], the IC50 turned out to be 54 µg/mL (≈ 147 µM). Besides, in [5], the zone of inhibition at 5000 µg/mL turned out to be 18.1 mm. For the same compound, in series [6], the zone of inhibition at 5000 µg/mL is 20.8 mm. In addition, the zone of inhibition at 5000 µg/mL in series [7] came to 20.3 mm. The zone of inhibition at 5000 µg/mL in [8] was 22.4 mm. Also, the zone of inhibition at 5000 µg/mL in [9] came out at 21.6 mm. In series [10], the zone of inhibition at 5000 µg/mL was 22.3 mm.

In turn, `CC(=O)c1ccc(N=Nc2cc3c(cc2O)OC(N)=C(C#N)C3c2ccc(F)cc2)cc1` (stereo not drawn) [13d, 6-(4-Acetyl-phenylazo)-2-amino-4-(4-fluoro-phenyl)-7-hydroxy-4H-chromene-3-carbonitrile] registered a melting point of 265 °C. Also, the IC50 in [2] is 75 µg/mL (≈ 175 µM). Also, the 50% inhibitory concentration (IC50) in series [3] was 85 µg/mL (≈ 198 µM). Moreover, the IC50 in [4] was found to be 80 µg/mL (≈ 187 µM). Moreover, the zone of inhibition at 5000 µg/mL in series [5] is 11.4 mm. Also, the zone of inhibition at 5000 µg/mL in [11] stood at 8 mm. Besides, in [6], the zone of inhibition at 5000 µg/mL turned out to be 10.8 mm. In addition, the zone of inhibition at 5000 µg/mL in series [7] is 13.4 mm. Also, the zone of inhibition at 5000 µg/mL in series [9] turned out to be 12.9 mm. Besides, the zone of inhibition at 5000 µg/mL in [10] was 13.2 mm.

`C[C@@H]1[C@H](O)[C@@H](C)/C=C/C=C/C=C/C=C/C=C/C=C/C=C/[C@H](O[C@@H]2O[C@H](C)[C@@H](O)[C@H](N)[C@@H]2O)C[C@@H]2O[C@](O)(C[C@@H](O)C[C@@H](O)[C@H](O)CC[C@@H](O)C[C@@H](O)CC(=O)O[C@H]1C)C[C@H](O)[C@H]2C(=O)O` [Amphotericin B, reference compound]: the MIC turned out to be 3.9 µg/mL (≈ 4.22 µM) in series [12], 0.24 µg/mL (≈ 0.26 µM) in series [13] and 0.015 µg/mL (≈ 0.0162 µM) in series [14]. Besides, the zone of inhibition at 5000 µg/mL in series [5] was 19.7 mm; in series [11], 25.4 mm; in series [7], 23.7 mm; in series [8] it was 28.7 mm.

The values are drawn from article PMC5547389, “Structure-activity relationships and molecular docking studies of chromene and chromene based azo chromophores: A novel series of potent antimicrobial and anticancer agents” (EXCLI Journal, 2017).
